According to ChEMBL document CHEMBL4229358, “Synthesis of novel 4-functionalized 1,5-diaryl-1,2,3-triazoles containing benzenesulfonamide moiety as carbonic anhydrase I, II, IV and IX inhibitors” (Eur J Med Chem, 2018):

What follows are compounds tested against Carbonic anhydrase 9 (Homo sapiens, UniProt Q16790) (assay: Inhibition of transmembrane human carbonic anhydrase 9 by stopped flow CO2 hydration assay).
For NS(=O)(=O)c1ccc(-n2nnc(C(=O)O)c2-c2ccc(Br)cc2)cc1, the Ki was 1410 nM. NS(=O)(=O)c1ccc(-n2nnc(CO)c2-c2cccs2)cc1 was tested, and the Ki was 71.2 nM. NS(=O)(=O)c1ccc(-n2nnc(CO)c2-c2ccc(Br)cc2)cc1 was tested, and the Ki was 1730 nM. With NNC(=O)c1nnn(-c2ccc(S(N)(=O)=O)cc2)c1-c1ccc(F)cc1 the Ki was 2450 nM. Compound NS(=O)(=O)c1ccc(-n2nnc(C(=O)O)c2-c2ccc(F)cc2)cc1 has a Ki of 1580 nM. Work on NNC(=O)c1nnn(-c2ccc(S(N)(=O)=O)cc2)c1-c1ccccn1 yielded a Ki of 2900 nM. Cc1ccc(-c2c(C(=O)O)nnn2-c2ccc(S(N)(=O)=O)cc2)cc1 gave a Ki of 1410 nM. For CCOC(=O)c1nnn(-c2ccc(S(N)(=O)=O)cc2)c1-c1ccccn1, the Ki was 1420 nM. NS(=O)(=O)c1ccc(-n2nnc(CO)c2-c2ccc(Cl)cc2)cc1 was tested, and the Ki was 1210 nM. In the case of NC(=O)c1nnn(-c2ccc(S(N)(=O)=O)cc2)c1-c1cccs1, the Ki is reported as 225 nM. With NS(=O)(=O)c1ccc(-n2nnc(CO)c2-c2ccccn2)cc1 the Ki was 14.3 nM. In the case of NNC(=O)c1nnn(-c2ccc(S(N)(=O)=O)cc2)c1-c1ccc(Br)cc1, the Ki is reported as 1350 nM. Work on NC(=O)c1nnn(-c2ccc(S(N)(=O)=O)cc2)c1-c1ccccn1 yielded a Ki of 730 nM. NS(=O)(=O)c1ccc(-n2nnc(C(=O)O)c2-c2ccc(Cl)cc2)cc1 was tested, and the Ki was 716 nM. Compound NNC(=O)c1nnn(-c2ccc(S(N)(=O)=O)cc2)c1-c1ccc(Cl)cc1 has a Ki of 909 nM. For CCOC(=O)c1nnn(-c2ccc(S(N)(=O)=O)cc2)c1-c1cccs1, the Ki was 237 nM. CCOC(=O)c1nnn(-c2ccc(S(N)(=O)=O)cc2)c1-c1ccc(F)cc1 was tested, and the Ki was 633 nM. Compound NC(=O)c1nnn(-c2ccc(S(N)(=O)=O)cc2)c1-c1ccc(F)cc1 has a Ki of 107 nM. Work on NS(=O)(=O)c1ccc(-n2nnc(CO)c2-c2ccc(F)cc2)cc1 yielded a Ki of 2370 nM. With NS(=O)(=O)c1ccc(-n2nnc(C(=O)O)c2-c2ccccn2)cc1 the Ki was 2090 nM. NC(=O)c1nnn(-c2ccc(S(N)(=O)=O)cc2)c1-c1ccc(Br)cc1 showed a Ki of 256 nM. Cc1ccc(-c2c(CO)nnn2-c2ccc(S(N)(=O)=O)cc2)cc1 gave a Ki of 2330 nM. With CCOC(=O)c1nnn(-c2ccc(S(N)(=O)=O)cc2)c1-c1ccc(Br)cc1 the Ki was 228 nM. NNC(=O)c1nnn(-c2ccc(S(N)(=O)=O)cc2)c1-c1cccs1 was tested, and the Ki was 2830 nM. Work on CCOC(=O)c1nnn(-c2ccc(S(N)(=O)=O)cc2)c1-c1ccc(Cl)cc1 yielded a Ki of 1480 nM. Cc1ccc(-c2c(C(N)=O)nnn2-c2ccc(S(N)(=O)=O)cc2)cc1 showed a Ki of 73 nM. Compound NS(=O)(=O)c1ccc(-n2nnc(C(=O)O)c2-c2cccs2)cc1 has a Ki of 1310 nM. With CCOC(=O)c1nnn(-c2ccc(S(N)(=O)=O)cc2)c1-c1ccc(C)cc1 the Ki was 198 nM. With Cc1ccc(-c2c(C(=O)NN)nnn2-c2ccc(S(N)(=O)=O)cc2)cc1 the Ki was 738 nM. NC(=O)c1nnn(-c2ccc(S(N)(=O)=O)cc2)c1-c1ccc(Cl)cc1 gave a Ki of 117 nM.
